In patent publication EP1734031A1, “NOVEL 2-(ALPHA-N-PENTANONYL)BENZOETES, THEIR PREPARATION AND USE” (priority 2004, dated 2005):
“And” between values parts separate entries of the source, which are not always exact repeats. Equal values may be shown once. Marks after values point to notes of the source that are not given here.

Assays:
[1] = Stability of aqueous solution (decomposed products by HPLC); type: physicochemical; settings: aqueous solution 0.2 mg/ml, exposed to water for 24 hours
[2] = tested on: model rats of middle cerebral artery thrombosis (MCAT); test: Effects on neural symptoms of MCAT rats (behavioral score); type: in vivo, SD rats; settings: for Scores 6 hours: 6 hours after operation; for Scores 6 hours / Scores 24 hours: full mark 4; for Scores 24 hours: 24 hours after operation; for % inhibition at hour 24 / alleviation on neural symptoms at 24 hours after the operation (in words): vs. model group; for alleviation on neural symptoms at 24 hours after the operation (in words): 50 mg/kg, P<0.01 or P<0.05
[3] = tested on: model rats of middle cerebral artery thrombosis (MCAT); test: Effects on cerebral infarct area of MCAT rats (TTC staining); type: in vivo, SD rats; settings: for cerebral infarct compared with the model group (in words): 50 mg/kg, P<0.05
[4] = tested on: thrombosis of artery-vein bypass in rats; test: Effects on thrombosis of artery-vein bypass in rats; type: in vivo, SD rats; settings: for Dry-weight of thrombus / Wet-weight of thrombus: once per day for 3 days; for Inhibition (dry-weight of thrombus) / Inhibition (wet-weight of thrombus): vs. thrombus model group
[5] = in vivo; settings: mouse, po; for LD50 at 7 days: both, ICR
[6] = Thermal stability (purity by HPLC); settings: 10 days at 60°C
Procedure: Tests were conducted for 10 days at 60°C in accordance with the testing method as described in Pharmacopoeia of P.R. China, 2000 ed., appendix XIX C of part two, "Guideline for testing the stability of medicament: method for testing thermal stability". The purity was determined in accordance with the test described in Pharmacopoeia of P.R. China, 2000 ed., appendix VD of part two, by using HPLC method, C18 column, mobile phase of acetonitrile:0.02M sodium dihydrogen phosphate = 40:60, detecting wavelength of 230 nm, flow rate of 1 ml/min.

[7] = Stability to light (purity by HPLC); settings: light test, 10 days
Procedure: Tests were conducted for 10 days in accordance with the testing method as described in Pharmacopoeia of P.R. China, 2000 ed., appendix XIX C of part two, "Guideline for testing the stability of medicament: method for testing stability to light". The purity was determined in accordance with the test described in Pharmacopoeia of P.R. China, 2000 ed., appendix VD of part two, by using HPLC method, C18 column, mobile phase of acetonitrile:0.02M sodium dihydrogen phosphate = 40:60, detecting wavelength of 230 nm, flow rate of 1 ml/min.

[8] = tested on: ICR mice; settings: mouse, in vivo, po, 168 h
[9] = 50 mg/kg by gavage, 24 hours after operation
[10] = 50 mg/kg by gavage, vs. model group
[11] = 100 mg/kg by gavage, 24 hours after operation
[12] = 100 mg/kg by gavage, vs. model group
[13] = 200 mg/kg by gavage, 24 hours after operation
[14] = 200 mg/kg by gavage, vs. model group

SMILES	Scores 6 hours ([2]; 50 mg/kg by gavage)	Scores 24 hours ([2]; 50 mg/kg by gavage)	% inhibition at hour 24 ([2]; 50 mg/kg by gavage) [%]	alleviation on neural symptoms at 24 hours after the operation (in words) [2]	Scores 6 hours ([2]; 100 mg/kg by gavage)	Scores 24 hours ([2]; 100 mg/kg by gavage)	% inhibition at hour 24 ([2]; 100 mg/kg by gavage) [%]	Scores 6 hours ([2]; 200 mg/kg by gavage)	Scores 24 hours ([2]; 200 mg/kg by gavage)	% inhibition at hour 24 ([2]; 200 mg/kg by gavage) [%]	Cerebral infarct tissue weight/total brain weight [3, 9] [%]	Inhibition (cerebral infarct) [3, 10] [%]	Cerebral infarct tissue weight/total brain weight [3, 11] [%]	Inhibition (cerebral infarct) [3, 12] [%]	Cerebral infarct tissue weight/total brain weight [3, 13] [%]	Inhibition (cerebral infarct) [3, 14] [%]	Dry-weight of thrombus ([4]; 50 mg/kg by gavage) [mg]	Wet-weight of thrombus ([4]; 50 mg/kg by gavage) [mg]	Inhibition (dry-weight of thrombus) ([4]; 50 mg/kg) [%]	Inhibition (wet-weight of thrombus) ([4]; 50 mg/kg) [%]	other results
CCCCC(=O)c1ccccc1C(=O)[O-].[Na+] [Sodium 2-(α-n-pentanonyl)benzoate, sodium 2-(α-n-pentanonyl)benzoate]	3.40±0.70	3.00±0.67	17.58	significantly alleviation	3.10±0.74	2.80±0.79	24.93	3.27±0.65	2.82±0.40	24.40	5.26±2.26	29.01	4.99±1.83	37.16	5.19±2.40	31.80	26.2 ± 9.7	138.8 ± 41.1	31.05	34.31	decomposed product [1]: no decomposed product; cerebral infarct compared with the model group (in words) [3]: significantly reduced; Dry-weight of thrombus ([4]; 100 mg/kg by gavage): 19.7 ± 7.8 mg; Wet-weight of thrombus ([4]; 100 mg/kg by gavage): 115.4 ± 42.3 mg; Inhibition (dry-weight of thrombus) ([4]; 100 mg/kg): 48.16%; Inhibition (wet-weight of thrombus) ([4]; 100 mg/kg): 45.39%; Dry-weight of thrombus ([4]; 200 mg/kg by gavage): 22.4 ± 10.1 mg; Wet-weight of thrombus ([4]; 200 mg/kg by gavage): 131.1 ± 48.0 mg; Inhibition (dry-weight of thrombus) ([4]; 200 mg/kg): 41.05%; Inhibition (wet-weight of thrombus) ([4]; 200 mg/kg): 37.96%; LD50 at 7 days [5]: 2650 mg/kg; decomposed product (thermal stability) [6]: no decomposed product; decomposed product (stability to light) [7]: no decomposed product
CCCCC(O)c1ccccc1C(=O)O (stereo not drawn) [N,N'-dibenzylethylenediamine 2-(α-hydroxypentyl)benzoate] [listing 1 of 2 here]																					LD50 at 168 h [5]: 2810 mg/kg
CCCCC(O)c1ccccc1C(=O)O (stereo not drawn) [Calcium 2-(α-hydroxypentyl)benzoate]	3.45±0.52	3.36±0.50	7.69		3.55±0.52	3.09±0.70	17.16	3.45±0.52	2.91±0.54	21.98	6.39±2.33	13.77	5.82±1.90	26.70	5.41±1.77	28.91					
CCCCC(O)c1ccccc1C(=O)O (stereo not drawn) [N,N'-dibenzylethylenediamine 2-(α-hydroxypentyl)benzoate] [listing 2 of 2 here]		3.09±0.54	15.11	significantly alleviation		2.91±0.70		3.36±0.67	2.82±0.87	24.40	5.85±2.32	21.05	5.50±1.82	30.73	5.09±2.14	33.11					
CCC/C=C1/OC(=O)c2ccccc21 [3-n-butenylphthalide]	3.50±0.53	3.40±0.52	6.59		3.36±0.81	2.91±0.70	21.98	3.36±0.67	3.00±0.63	19.57							28.6 ± 9.6	169.9 ± 28.8	24.74	19.59	Cerebral infarct tissue weight/total brain weight ([3]; rat, in vivo): 5.90±1.50% and 5.49±2.14 %; Inhibition (cerebral infarct) ([3]; rat, in vivo): 20.38% and 28.84% and 27.86%; Dry-weight of thrombus ([4]; 100 mg/kg by gavage): 22.9 ± 11.9 mg; Wet-weight of thrombus ([4]; 100 mg/kg by gavage): 137.5 ± 47.4 mg; Inhibition (dry-weight of thrombus) ([4]; 100 mg/kg): 39.74%; Inhibition (wet-weight of thrombus) ([4]; 100 mg/kg): 34.93%; Dry-weight of thrombus ([4]; 200 mg/kg by gavage): 24.9 ± 12.3 mg; Wet-weight of thrombus ([4]; 200 mg/kg by gavage): 141.6 ± 41.2 mg; Inhibition (dry-weight of thrombus) ([4]; 200 mg/kg): 34.47%; Inhibition (wet-weight of thrombus) ([4]; 200 mg/kg): 32.99%; LD50 at 168 h [5]: 2570 mg/kg
CCCCC(=O)c1ccccc1C(=O)O [Calcium 2-(α-n-pentanonyl)benzoate, calcium 2-(α-n-pentanonyl)benzoate]	3.18±0.60	2.73±0.65**^,s	25.00	significantly alleviation	3.40±0.52	2.90±0.57	22.25	3.27±0.79	2.45±0.82	34.32	5.01±1.79	32.39	5.23±2.04	34.13	4.65±2.13	38.90	40.2 ± 18.0	199.8 ± 30.4	21.64	22.92	cerebral infarct compared with the model group (in words) [3]: significantly reduced; Dry-weight of thrombus ([4]; 100 mg/kg by gavage): 34.2 ± 13.1 mg; Wet-weight of thrombus ([4]; 100 mg/kg by gavage): 189.8 ± 52.3 mg; Inhibition (dry-weight of thrombus) ([4]; 100 mg/kg): 33.33%; Inhibition (wet-weight of thrombus) ([4]; 100 mg/kg): 26.77%; Dry-weight of thrombus ([4]; 200 mg/kg by gavage): 30.4 ± 13.9 mg; Wet-weight of thrombus ([4]; 200 mg/kg by gavage): 163.2 ± 64.4 mg; Inhibition (dry-weight of thrombus) ([4]; 200 mg/kg): 40.74%; Inhibition (wet-weight of thrombus) ([4]; 200 mg/kg): 37.04%; LD50 value [8]: 2683.8 mg/kg; decomposed product (thermal stability) [6]: no decomposed product; decomposed product (stability to light) [7]: no decomposed product
CCCCC1OC(=O)c2ccccc21 (racemic) [DL-3-n-butylphthalide]	3.36±0.81	3.09±0.54	15.11	significantly alleviation	3.36±0.50	3.09±0.70	17.16	3.36±0.67	3.00±0.89	19.57	5.66±2.81	23.62	5.81±1.49	26.83	5.52±1.78	27.46					LD50 at 168 h [5]: 2190 mg/kg
CCCCC(=O)c1ccccc1C(=O)[O-].[K+] [Potassium 2-(α-n-pentanonyl)benzoate, potassium 2-(α-n-pentanonyl)benzoate]	3.27±0.79	2.91±0.70	20.05	significantly alleviation	3.36±0.67	2.82±0.75	24.40	3.20±0.63	2.10 ± 0.32 s	43.70	5.63±1.52	24.02	5.09±2.04	35.89	4.38±1.54	42.44	38.3 ± 15.4	208.8 ± 45.3	25.34	19.44	decomposed product [1]: no decomposed product; cerebral infarct compared with the model group (in words) [3]: significantly reduced; Dry-weight of thrombus ([4]; 100 mg/kg by gavage): 35.6 ± 14.0 mg; Wet-weight of thrombus ([4]; 100 mg/kg by gavage): 192.6 ± 41.2 mg; Inhibition (dry-weight of thrombus) ([4]; 100 mg/kg): 30.60%; Inhibition (wet-weight of thrombus) ([4]; 100 mg/kg): 25.69%; Dry-weight of thrombus ([4]; 200 mg/kg by gavage): 28.3 ± 16.3 mg; Wet-weight of thrombus ([4]; 200 mg/kg by gavage): 157.0 ± 51.4 mg; Inhibition (dry-weight of thrombus) ([4]; 200 mg/kg): 44.8%; Inhibition (wet-weight of thrombus) ([4]; 200 mg/kg): 39.43%; Inhibition (dry-weight of thrombus) ([4]; 200 mg/kg, listed as potassium 2-(α-n-pentanonyl)benzoate): 44.83%; LD50 at 7 days [5]: 2720 mg/kg; decomposed product (thermal stability) [6]: no decomposed product; decomposed product (stability to light) [7]: no decomposed product
